Source: patent US10829458B2 (Araxes Pharma LLC, priority 2015, dated 2020)

Biological target: T1, KRAS G12C 1-169, his-tagged protein, GDP-loaded (Homo sapiens, UniProt P01116, G12C)
T1 construct: KRAS G12C 1-169, his-tagged protein, GDP-loaded
Assay: Biochemical assay: covalent modification of KRAS G12C measured by mass spectrometry (RapidFire/TOF or Q-Exactive)
Details: covalent binding to KRAS G12C
Summary of the method: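 GDP-loaded his-tagged KRAS G12C 1-169 at 2 μM in 20 mM Hepes, 150 mM NaCl, 1 mM MgCl2 incubated at room temperature with compound (10, 30 or 100 μM final, 2% DMSO) for 30 min, 2 h or 24 h, then quenched with formic acid. Intact-protein LC-MS (RapidFire/TOF or Q-Exactive) with deconvolution quantified modified versus unmodified protein.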

SMILES	Binding % (compounds of structure (I))	Binding % (compounds of structure (III))
C=CC(=O)N1CCN(c2nc(OCCN3CCOCC3)nc3c(F)c(-c4cc(O)cc5cccnc45)c(Cl)cc23)CC1 [Example I-108, 1-(4-(6-chloro-8-fluoro-7-(6-hydroxy-quinolin-8-yl)-2-(2-morpholino-ethoxy)quinazolin-4-yl)piperazin-1-yl) prop-2-en-1-one]	+++ (+++ indicates binding activity greater than 90%)	–
C=CC(=O)N1C[C@H](C)N(c2ncnc3c(F)c(-c4c(O)cccc4F)c(Cl)cc23)C[C@H]1C [III-1, 1-((2R,5S)-4-(6-chloro-8-fluoro-7-(2-fluoro-6-hydroxy-phenyl)quinazolin-4-yl)-2,5-dimethyl-piperazin-1-yl)prop-2-en-1-one]	–	++ (++ indicates activity from 50% to 90%)
C=CC(=O)N1CCN(c2nc(OCCN3CCC3)nc3c(F)c(-c4c(O)cccc4F)c(Cl)cc23)CC1 [Example I-43, 1-(4-(2-(2-(azetidin-1-yl)ethoxy)-6-chloro-8-fluoro-7-(2-fluoro-6-hydroxyphenyl)quinazolin-4-yl)piperazin-1-yl) prop-2-en-1-one]	+++ (+++ indicates binding activity greater than 90%)	–
C=CC(=O)N1CCN(c2nc(OCCN3CCCC3=O)nc3c(F)c(-c4c(C)ccc5[nH]ncc45)c(Cl)cc23)CC1 [Example I-1, 1-(2-(4-(4-acryloylpiperazin-1-yl)-6-chloro-8-fluoro-7-(5-methyl-1H-indazol-4-yl)quinazolin-2-yloxy)ethyl) pyrrolidin-2-one]	+++ (+++ indicates binding activity greater than 90%)	–
C=CC(=O)N1CCN(c2ncnc3c(F)c(-c4c(O)cccc4F)c(Cl)cc23)CC1C (stereo not shown) [III-5, 1-(4-(6-chloro-8-fluoro-7-(2-fluoro-6-hydroxy-phenyl)quinazolin-4-yl)-2-methyl-piperazin-1-yl)prop-2-en-1-one]	–	++ (++ indicates activity from 50% to 90%)
C=CC(=O)N1CCN(c2nc(OC3COC3)nc3c(F)c(-c4c(O)cccc4F)c(Cl)cc23)CC1 [Example I-19, 1-(4-(6-chloro-8-fluoro-7-(2-fluoro-6-hydroxyphenyl)-2-(oxetan-3-yloxy)quinazolin-4-yl)piperazin-1-yl)prop-2-en-1-one]	++ (++ indicates binding activity from 50 to 90%)	–
C=CC(=O)N1CCN(c2nc(C#N)nc3c(F)c(-c4c(C)ccc5[nH]ncc45)c(Cl)cc23)CC1 [Example I-11, 4-(4-acryloyl-piperazin-1-yl)-6-chloro-8-fluoro-7-(5-methyl-1H-indazol-4-yl)quinazoline-2-carbonitrile]	+++ (+++ indicates binding activity greater than 90%)	–
C=CC(=O)N1CCN(c2nc(OC3CCOCC3)nc3c(F)c(-c4c(O)cccc4F)c(Cl)cc23)CC1 [Example I-18, 1-(4-(6-chloro-8-fluoro-7-(2-fluoro-6-hydroxyphenyl)-2-(tetrahydro-2H-pyran-4-yloxy)quinazolin-4-yl)piperazin-1-yl)prop-2-en-1-one]	+++ (+++ indicates binding activity greater than 90%)	–
C=CC(=O)N1CCN(c2nc(NC3CN(c4ncccn4)C3)nc3c(F)c(-c4c(C)ccc5[nH]ncc45)c(Cl)cc23)CC1 [Example I-187, 1-(4-(6-chloro-8-fluoro-7-(5-methyl-1H-indazol-4-yl)-2-((1-(pyrimidin-2-yl)azetidin-3-yl)amino)quinazolin-4-yl)piperazin-1-yl) prop-2-en-1-one]	+ (+ indicates binding activity up to 50%)	–
C=CC(=O)N1CCN(c2nc(OCCN3CCC(F)(F)C3)nc3c(F)c(-c4c(C)ccc5[nH]ncc45)c(Cl)cc23)CC1 [Example I-146, 1-(4-(6-chloro-2-(2-(3,3-difluoro-pyrrolidin-1-yl)ethoxy)-8-fluoro-7-(5-methyl-1H-indazol-4-yl)quinazolin-4-yl)piperazin-1-yl) prop-2-en-1-one]	+++ (+++ indicates binding activity greater than 90%)	–
C=CC(=O)N1CCN(c2nc(OCCN(CC)CC)nc3c(F)c(-c4c(O)cccc4F)c(Cl)cc23)CC1 [Example I-40, 1-(4-(6-chloro-2-(2-(diethyl-amino)ethoxy)-8-fluoro-7-(2-fluoro-6-hydroxyphenyl)quinazolin-4-yl)piperazin-1-yl) prop-2-en-1-one]	+++ (+++ indicates binding activity greater than 90%)	–
C=CC(=O)N1CCN(c2nc(Oc3cn[nH]c3)nc3c(F)c(-c4c(O)cccc4F)c(Cl)cc23)CC1 [Example I-64, 1-(4-(2-(1H-pyrazol-4-yloxy)-6-chloro-8-fluoro-7-(2-fluoro-6-hydroxyphenyl)quinazolin-4-yl)piperazin-1-yl) prop-2-en-1-one]	+++ (+++ indicates binding activity greater than 90%)	–
C=CC(=O)N1[C@H](C)CN(c2ncnc3c(F)c(-c4cc(O)cc5ccccc45)c(Cl)cc23)C[C@@H]1C [III-27, 1-((2S,6R)-4-(6-chloro-8-fluoro-7-(3-hydroxy-naphthalen-1-yl)quinazolin-4-yl)-2,6-dimethyl-piperazin-1-yl)prop-2-en-1-one]	–	+++ (+++ indicates binding activity greater than 90%)
C=CC(=O)N1CCN(c2nc(OCCN3CC(F)(F)C3)nc3c(F)c(-c4c(O)cccc4F)c(Cl)cc23)CC1 (atropisomer, axis not shown) [Example I-125, (S)-1-(4-(6-chloro-2-(2-(3,3-difluoro-azetidin-1-yl)ethoxy)-8-fluoro-7-(2-fluoro-6-hydroxyphenyl)quinazolin-4-yl)piperazin-1-yl) prop-2-en-1-one]	+++ (+++ indicates binding activity greater than 90%)	–
C=CC(=O)N1CCN(c2ncnc3c(F)c(-c4c(O)cccc4F)c(Cl)cc23)CC1(C)C [III-7, 1-(4-(6-chloro-8-fluoro-7-(2-fluoro-6-hydroxy-phenyl)quinazolin-4-yl)-2,2-dimethyl-piperazin-1-yl)prop-2-en-1-one]	–	+ (+ indicates binding activity up to 50%)
C=CC(=O)N1CCN(c2nc(OCc3cnc(C)nc3)nc3c(F)c(-c4c(O)cccc4F)c(Cl)cc23)CC1 [Example I-101, 1-(4-(6-chloro-8-fluoro-7-(2-fluoro-6-hydroxyphenyl)-2-((2-methyl-pyrimidin-5-yl)methoxy)quinazolin-4-yl)piperazin-1-yl) prop-2-en-1-one]	+++ (+++ indicates binding activity greater than 90%)	–
C=CC(=O)N1CCN(c2nc(N3CC4(CCOC4)C3)nc3c(F)c(-c4c(C)ccc5[nH]ncc45)c(Cl)cc23)CC1 [Example I-156, 1-(4-(6-chloro-8-fluoro-7-(5-methyl-1H-indazol-4-yl)-2-(6-oxa-2-azaspiro[3,4]octan-2-yl)quinazolin-4-yl)piperazin-1-yl) prop-2-en-1-one]	+++ (+++ indicates binding activity greater than 90%)	–
C=CC(=O)N1CCN(c2nc(OCCC3CCN(C4CC4)CC3)nc3c(F)c(-c4c(O)cccc4F)c(Cl)cc23)CC1 [Example I-192, 1-(4-(6-chloro-2-(2-(1-cyclopropyl-piperidin-4-yl)ethoxy)-8-fluoro-7-(2-fluoro-6-hydroxyphenyl)quinazolin-4-yl)piperazin-1-yl) prop-2-en-1-one]	+++ (+++ indicates binding activity greater than 90%)	–
C=CC(=O)N1CCN(c2nc(NC3CN(C4CCOCC4)C3)nc3c(F)c(-c4c(O)cccc4F)c(Cl)cc23)CC1 [Example I-185, 1-(4-(6-chloro-8-fluoro-7-(2-fluoro-6-hydroxyphenyl)-2-((1-(tetrahydro-2H-pyran-4-yl)azetidin-3-yl)amino)quinazolin-4-yl)piperazin-1-yl) prop-2-en-1-one]	+ (+ indicates binding activity up to 50%)	–
